Results published in article PMC12474757, “Paving the way for future PSMA inhibitors: insights from comparative preclinical evaluations of structure modifications” (EJNMMI Radiopharmacy and Chemistry, 2025).
Read-outs that look alike come from different tables or passages of the source.

Experiments:
human plasma proteins [1] = test: Binding to human plasma proteins; assay type: in vitro ADME; conditions: for Protein binding (%): human plasma, 37 °C, n = 2
Procedure: (§1) Binding to human plasma proteins was determined following this procedure: 10 µL of the ⁶⁸Ga-P15 with radioactivity of 45 kBq/100 µL was mixed with 190 µL of human plasma. The sample was then incubated at 37 °C. After 0, 30, 60 and 120 min 25 µL of the sample was collected, applied to the appropriate column and centrifuged at 2000 g for 2 minutes. The radioactivity of the samples was then measured using a gamma counter 2480 Wizard^2 (PerkinElmer, Waltham, MA, USA), and then the binding to plasma proteins was calculated using the following formula % plasma protein binding = (Aelution/Atotal)×100. The same procedure was applied when determining binding to plasma proteins of ⁶⁸Ga-P16, ⁶⁸Ga-P19, and ⁶⁸Ga-PSMA-617.

[2] = Stability in human plasma/serum (radiochemical purity by HPLC); assay type: in vitro ADME; conditions: radiochemical purity, 37 °C, n = 1
Procedure: (§2) Quality control, i.e. radiochemical purity, of the ^68Ga-labelled PSMA inhibitors was evaluated by analytical high performance liquid chromatography (HPLC; Dionex UltiMate 3000, Thermo Scientific, Waltham, Massachusetts, USA) using the following equipment: ACE 3 C18 column; 150 × 3 mm, 3 μm (Advanced Chromatography Technologies Ltd, Aberdeen, UK), with gradient elution A: H2O/acetonitrile (ACN); B:0.1% trifluoroacetic acid (TFA)/H2O: 0–3 min, 0% ACN; 3–10 min, 0 − 50% ACN; 10–13 min, 50 − 80% ACN; 13–15 min, 80–0% ACN, for 15 min at a flow rate of 1 mL/min. Radiometric detection was performed using a GABI Star radiodetector (Raytest GmbH, Straubenhardt, Germany) and for chromatogram quantification Chromatography Data System (CDS) - Chromeleon software (Thermo Scientific, USA) was used. The actual sample injection was performed using a Hamilton microinjector (Hamilton, USA).
Plasma stability was determined as follows. To 100 µL of ⁶⁸Ga-P15 with radioactivity of 45 kBq/100 µL, 400 µL of human plasma was added and mixed. The mixture was incubated at 37 °C and 100 µL samples were taken at 30, 60 and 120 min. These samples were then mixed with 200 µL of acetonitrile and placed on a shaker for 1 min. The sample was then centrifuged at 15,000 rpm for 3 min. After centrifugation, the supernatant was collected for radiochemical purity analysis by HPLC. The same procedure was applied when determining plasma stability of ⁶⁸Ga-P16, ⁶⁸Ga-P19, and ⁶⁸Ga-PSMA-617.

[3] = Radiochemical stability in physiological pH water environment; assay type: physicochemical; conditions: pH 7, 37 °C; for Stability in Physiological pH (%): radiochemical purity, n = 1
Procedure: as §2
Radiochemical stability in a physiological pH water environment was determined as follows: 100 µL of acetate buffer (1.1 mol/L) was added to the labelled preparation and the pH was then checked with a pH indicator paper to be 7. The mixture was further incubated at 37 °C and after 30, 60 and 120 min, 10 µL aliquot was used for HPLC analysis of radiochemical purity.

[4] = tested on: LNCaP tumour-bearing mice; test: Ex vivo biodistribution in LNCaP tumour-bearing mice; set-up: species or system SCID mice; conditions: for tumour-to-blood ratio / tumour-to-kidney ratio / tumour-to-muscle ratio: mean ± SD, n = 4
Procedure: The eight-week-old male SCID mice (Charles River, Massachusetts, USA) were used to generate the mouse tumour model. The implantation of 10 million LNCaP cells (ATCC, Virginia, USA) per mouse in a 1:1 mixture of Matrigel matrix (Corning, New York, USA) was performed subcutaneously behind the right shoulder of the mouse. Tumours of adequate size, representing a volume of 100–300 mm³, were observed after five to six weeks.
Ex vivo biodistribution of PSMA inhibitors in tumor-bearing mice was conducted as follows. Concisely, 30 µL of acetate buffer was added to the each ⁶⁸Ga -labelled inhibitor, namely: ⁶⁸Ga-P15, ⁶⁸Ga-P16, ⁶⁸Ga-P19, and ⁶⁸Ga-PSMA-617 to achieve physiological pH. Mice were r.o. injected with 100 µL of labelled inhibitor (2 MBq, approximately 0.5 µg of the inhibitor). Animals were divided into two groups for biodistribution studies at 1 and 2 h after administration of the respective ^68Ga-labelled PSMA inhibitor. The animals were sacrificed and autopsied after euthanasia, and organs: spleen, pancreas, stomach, intestine, kidney, liver, heart, lung, muscle, bone, and tumour were collected in scintillation vials. The vials containing the samples were weighed and measured in a Wizard2 gamma counter (PerkinElmer, USA). The measured values were then adjusted for radionuclide decay and expressed as a percentage of administered dose per gram of organ (%ID/g). The NanoScan® hybrid Positron Emission Tomography/Computed Tomography (PET/CT) machine (Mediso, Budapest, Hungary) was used for in vivo imaging specifically whole-body helical PET/CT scans. Imaging settings were: single field of view (FOV) PET scans (98.5 mm) which took 10 min for each mouse and helical CT scans (50 kVp/980 µA, 720 projections) both took place one hour after the administration. Each mouse received an injection of approximately 10 MBq of tested radiopharmaceutical. To prevent the mice’s eyes from drying out during anaesthesia eye ointment (Ophthalmo-Azulen, Zentiva, CR) was applied. Image reconstruction was performed using Mediso Tera-Tomo 3D PET iterative reconstruction (Mediso Medical Imaging Systems, Budapest, Hungary). Both reconstruction and data evaluation were performed in Mediso InterView FUSION software (Mediso Medical Imaging Systems, Budapest, Hungary) (Mediso, Budapest, Hungary). Final images were normalised to injected activity and animal weight. All organs with radiopharmaceutical accumulation were roughly delineated on the images, while their SUVmax value was recorded. The SUV41% (Standardized Uptake Value 41%) was then calculated as 41% of each SUVmax value of given hotspot and the ROI was delineated based on this value (Boellaard et al. [2015]). All images were exported in maximum intensity projection (MIP) mode. The results from the ex vivo biodistribution study were subjected to statistical analysis, namely unpaired Student’s t-test (Microsoft Excel 365, USA).

human plasma proteins [5] = conditions: cited from earlier work
[6] = Stability in human plasma/serum (radiochemical purity by HPLC); assay type: in vitro ADME; conditions: 37 °C, incubation time 0 min, n = 1
mouse serum proteins = tested on: mouse serum proteins; set-up: method as in Umbricht et al. [2018]; conditions: ref Umbricht et al. [2018]; cited from earlier work
PSMA = PSMA affinity, cited from earlier work
[7] = Binding to human plasma proteins; assay type: in vitro ADME; conditions: human plasma, 37 °C, n = 2, read-out: Protein binding (%) (converted)
Procedure: as §1

**Q.** With O=C([O-])CN1CCN(CC(=O)[O-])CCN(CC(=O)NCC2CCC(C(=O)NC(Cc3ccc4ccccc4c3)C(=O)NCCCCC(NC(=O)NC(CCC(=O)O)C(=O)O)C(=O)O)CC2)CCN(CC(=O)[O-])CC1.[68Ga+3] (centres unmarked) [[^68Ga]Ga-PSMA-617, reference compound] as the compound, how does the “Protein binding (%)” value (human plasma proteins [1]; incubation time 0 min) read?
**A.** 52.6%

**Q.** And the “Protein binding (%)” value (human plasma proteins [1]; incubation time 30 min)?
**A.** 52.9%

**Q.** And the “Protein binding (%)” value (human plasma proteins [1]; incubation time 60 min)?
**A.** 53.3%

**Q.** And the “Protein binding (%)” value (human plasma proteins [1]; incubation time 120 min)?
**A.** 54.3%

**Q.** What about the “Binding rate to human plasma proteins” value (human plasma proteins [1]; overall statement, incubation up to 120 min) of the same compound?
**A.** approximately 54%

**Q.** And the “Stability in human serum (%)” value ([2]; incubation time 30 min)?
**A.** 97.8%

**Q.** What about the “Stability in human serum (%)” value ([2]; incubation time 60 min) of the same compound?
**A.** 98.2%

**Q.** And the “Stability in human serum (%)” value ([2]; incubation time 120 min)?
**A.** 98.7%

**Q.** What about the “Stability in Physiological pH (%)” value ([3]; incubation time 0 min) of the same compound?
**A.** 98.4%

**Q.** And the “Stability in Physiological pH (%)” value ([3]; incubation time 30 min)?
**A.** 98.5%

**Q.** And the “Stability in Physiological pH (%)” value ([3]; incubation time 60 min)?
**A.** 98.9%

**Q.** And the “Stability in Physiological pH (%)” value ([3]; incubation time 120 min)?
**A.** 98.5%

**Q.** And the tumour-to-blood ratio ([4]; one-hour p.i.)?
**A.** 5.5 ± 2.0

**Q.** What about the tumour-to-kidney ratio ([4]; one-hour p.i.) of the same compound?
**A.** 0.12 ± 0.03

**Q.** What about the tumour-to-kidney ratio ([4]; two hours post injection) of the same compound?
**A.** 1.26 ± 0.46

**Q.** And the tumour-to-blood ratio ([4]; two-hours p.i.)?
**A.** 13.6 ± 7.0

**Q.** What about the tumour-to-muscle ratio ([4]; two-hours p.i.) of the same compound?
**A.** 68.4 ± 66.1

**Q.** What about the “Binding to plasma proteins” value (human plasma proteins [5]; human, ref Benešová et al. [2018]) of the same compound?
**A.** 59%

**Q.** And the “Binding to human plasma proteins” value (human plasma proteins [5]; ref Umbricht et al. [2018])?
**A.** 59%

**Q.** And the “Stability in human serum (%)” value [6]?
**A.** 98.4%

**Q.** And the “Binding to mouse serum proteins” value (mouse serum proteins)?
**A.** 6%

**Q.** What does the source list for O=C(O)CC[C@H](NC(=O)N[C@@H](CCCCNC(=O)[C@@H](NC(=O)c1ccc(CNC(=O)CN2CCN(CC(=O)O)CCN(CC(=O)O)CCN(CC(=O)O)CC2)cc1)C(c1ccccc1)c1ccccc1)C(=O)O)C(=O)O [P19, Glu-urea-Lys-3,3-diphenyl-L-Ala-AMBA-DOTA]?
**A.** Radiochemical purity in physiological pH environment ([3]; each time-point tested (30, 60, 120 min)): highest stability; tumour-to-blood ratio ([4]; two-hours p.i.): 9.1 ± 1.7; tumour-to-muscle ratio ([4]; two-hours p.i.): 47.8 ± 12.4

**Q.** Which Ki (PSMA; ref Kozikowski et al. [2001]) does the source give for O=C(O)CCC(NC(=O)NC(CCC(=O)O)C(=O)O)C(=O)O (centres unmarked) [Glu-urea-Glu] here?
**A.** 47 nM

**Q.** For O=C(O)CC[C@H](NC(=O)N[C@@H](CCC(=O)N[C@H](Cc1ccc2ccccc2c1)C(=O)N[C@H]1CC[C@H](NC(=O)CN2CCN(CC(=O)O)CCN(CC(=O)O)CCN(CC(=O)O)CC2)CC1)C(=O)O)C(=O)O [P15, Glu-urea-Glu-2-Nal-D-Ala-NH-CHX-NH-DOTA], which “specific accumulation (tumour), fold lower than [68Ga]Ga-PSMA-617” value ([4]; one-hour p.i.) is on record?
**A.** 7 fold

**Q.** And the “specific accumulation (tumour), fold lower than [68Ga]Ga-PSMA-617” value ([4]; two-hours p.i.)?
**A.** more than 17.5 fold

**Q.** For NCCCCC(NC(=O)NC(CCC(=O)O)C(=O)O)C(=O)O (centres unmarked) [Glu-urea-Lys], which Ki (PSMA; ref Banerjee et al. [2008]) is on record?
**A.** 15.2 nM

**Q.** Which fraction unbound at 0 min, 2.25 kBq/100 µL ([7]; incubation time 0 min) does the source give for O=C(O)CC[C@H](NC(=O)N[C@@H](CCCCNC(=O)[C@H](Cc1ccc2ccccc2c1)NC(=O)[C@H]1CC[C@H](CNC(=O)CN2CCN(CC(=O)O)CCN(CC(=O)O)CCN(CC(=O)O)CC2)CC1)C(=O)O)C(=O)O [PSMA-617, Glu-urea-Lys-2-Nal-L-Ala-CHX-DOTA, reference compound] here?
**A.** 0.47

**Q.** And the fraction unbound at 120 min, 2.25 kBq/100 µL ([7]; incubation time 120 min)?
**A.** 0.46

**Q.** What about the “tumour-to-background ratio, fold higher than [68Ga]Ga-P19” value ([4]; two hours after administration) of the same compound?
**A.** ~1.5 fold

**Q.** And the Ki (PSMA; ref Benešová et al. [2015])?
**A.** 2.34 nM
